# From PMC9913425, “Pentacyclic Triterpenoids-Based Ionic Compounds: Synthesis, Study of Structure–Antitumor Activity Relationship, Effects on Mitochondria and Activation of Signaling Pathways of Proliferation, Genome Reparation and Early Apoptosis” (Cancers, 2023)
# Columns and labels:
# [1] = system: Chk2; experiment: Luminex xMAP DNA Damage/Genotoxicity panel, phosphorylated Chk2; format: cell-based; settings: Jurkat cells; 12a 0.006 µM, 13d 0.004 µM per 100,000 cells; 6 and 12 h
# Excerpt: [Worded in the source for another target; used here, by the source, with some conditions changed.] (§1) The determination of proteins in a cell by Luminex xMAP technology is characterized by the presence of multiplex multiparametric analysis with the simultaneous use of a multiplex of antibodies with a fluorescent label and magnetic particles, thereby resulting in an increase in the sensitivity of the technique and expansion of the dynamic range, as well as an increase in detection accuracy. Luminex XMAP technology provides a simultaneous analysis of a sufficient number of different proteins in various types of biological fluids (plasma, serum, cerebrospinal fluid, follicular fluid, tissue lysate, etc.) and in cell supernatants. Consequently, multiplexing saves time/costs and ensures the same conditions for the measurements, which is essential for significance and statistical processing.
# (§2) Magnetic microspheres (stained inside with two fluorescent dyes) in combination with monoclonal antibodies against the analyzed analytes (the main intracellular kinases in this case) are incubated with the samples and standards; then, the samples/standards are incubated with biotinylated monoclonal antibodies against the analyzed analytes and, finally, with a solution of streptavidin–phycoerythrin. The Luminex technology identifies the different proteins present in each well and converts the mean fluorescence intensity (MFI) of each measured cytokine to pg/mL using software and standard curves. This approach is successfully applied in fundamental and clinical research. In this work, we analyzed various protein analytes that make up the phosphorylated and non-phosphorylated fractions of the main kinases in the signaling pathways: CREB, JNK, NFkB, p38, ERK1/2, Akt, p70S6K, STAT3, STAT5 proteins in six samples of lysates of Jurkat tumor cells by Luminex technology (MILLIPLEX® MAP 9-Plex Multi-Pathway 9-plex Magnetic Bead Kit).
# [2] = system: Jurkat tumor cells; experiment: Release of cytochrome c from mitochondria (anti-cytochrome C FITC, cytofluorimetry); format: cell-based; settings: compound at IC50, incubation 3 h
# Method: Staurosporine (an inhibitor of most kinases in the cell) was taken as a control compound.
# Figure 2 Release of cytochrome C from mitochondria under the influence of ionic liquids in Jurkat tumor cells. Anti-cytochrome C FITC antibodies were used for staining. […] Incubation with test compounds was 3 h. TEXT PRINTED IN THE PICTURE: (b) 344: Negative 30.82%; Positive 64.67% | (c) 214: Negative 40.58%; Positive 56.16% | (d) 346: Negative 19.43%; Positive 76.96% DOUBTS OF THE COPYIST ABOUT THIS PICTURE: The picture prints only sample codes (344, 214, 346; each followed by '/ E3'), not compound numbers or names; these codes are used as labels. / Panel a (sample code 211-4h, Negative 5.82%, Positive 93.68%) appears to be an untreated control, not a substance, and is left out. / Print is small: b, Negative 30.82% (8 or 6); c, Positive 56.16% (6 or 8); d, Positive 76.96% (6 or 8, 9 or 8).
# [3] = system: ATR kinase; experiment: Luminex xMAP DNA Damage/Genotoxicity panel, ATR kinase content; format: cell-based; settings: Jurkat cells; 12a 0.006 µM, 13d 0.004 µM per 100,000 cells; 6 and 12 h
# [4] = system: STAT5; experiment: Luminex xMAP Multi-Pathway 9-plex, tyrosine-phosphorylated STAT5; format: cell-based; settings: Jurkat cells; 12a 0.006 µM, 13d 0.004 µM per 100,000 cells; lasting up to 12 h
# Excerpt: as §1, with “Consequently, multiplexing saves time/costs and ensures the same conditions for the measurements, which is essential for significance and statistical processing.” left out
# Magnetic microspheres (stained inside with two fluorescent dyes) in combination with monoclonal antibodies against the analyzed analytes (the main intracellular kinases in this case) are incubated with the samples and standards; then, the samples/standards are incubated with biotinylated monoclonal antibodies against the analyzed analytes and, finally, with a solution of streptavidin–phycoerythrin. The Luminex technology identifies the different proteins present in each well and converts the mean fluorescence intensity (MFI) of each measured cytokine to pg/mL using software and standard curves. […]
# The specific role of STAT3 and STAT5 was assessed by changes in the content of tyrosine-phosphorylated forms of these proteins (STAT3(ph) and STAT5(ph)). […]
# [5] = system: γH2AX; experiment: Luminex xMAP DNA Damage/Genotoxicity panel, phosphorylated γH2AX; format: cell-based; settings: Jurkat cells; 6 and 12 h
# Excerpt: as §1, with “processing. Simultaneous measurement of cytokines by bead multiplex analysis has certain similarities with ELISA, in particular the use of antibodies, but has a fundamental difference in using magnetic fluorescent beads coupled to antikinase monoclonal antibodies.” for “processing.”
# as §2
# Phosphorylation of histone H2AX at serine 139 (γH2AX) is an early stage in the cellular response to DNA damage, when the damage brings about formation of a double-strand break (DSB). γH2AX foci, considered as markers of DNA double-strand breaks, are easily detected by immunofluorescence microscopy and flow cytometry. The two main signaling pathways ATM/Chk2 and ATR/Chk1 respond to DNA damage and both lead to H2AX phosphorylation, but the ATR/Chk1 pathway causes γH2AX formation to a much lesser extent. The role of γH2AX in DNA repair is also discussed.
# Incubation time with the test compounds was 6 and 12 h. p < 0.001 (***).
# [6] = system: Chk1; experiment: Luminex xMAP DNA Damage/Genotoxicity panel, phosphorylated Chk1; format: cell-based; settings: Jurkat cells; 12a 0.006 µM, 13d 0.004 µM per 100,000 cells; 6 and 12 h
# Excerpt: [Worded in the source for another target; used here, by the source, with some conditions changed.] as §1, §2
# [7] = system: mitochondria of Jurkat tumor cells; experiment: Mitochondrial damage (MitoSense Red staining); format: cell-based; settings: compound at IC50 concentration, incubation 2 h
# [8] = system: HL60; experiment: In vitro cytotoxicity, IC50 by flow cytometry (Guava ViaCount); format: cell-based, human
# In short: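 Cells were grown at 37 °C under 5% CO2; the Jurkat, K562 and HL60 lines were kept in RPMI 1640 with 10% FBS, […] and penicillin–streptomycin. Cells were seeded at 5 × 10^4 per well and incubated overnight. IC50 was derived from Guava ViaCount flow cytometry.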
structure (smiles),measurement,setting,value
"CC1(C)CC[C@]2(C(=O)OCCCCCC[n+]3ccccc3)CC[C@]3(C)C(=CCC4[C@@]5(C)CC[C@H](O)C(C)(C)C5CC[C@]43C)C2C1 (stereo partly drawn) [12a, 1-(6-{[(3β)-3-Hydroxyolean-12-en-28-oyl]oxy}hexyl)-pyridinium bromide]",content of phosphorylated checkpoint kinase Chk2,[1],significantly decreases
same,cytochrome c release from mitochondria (cytochrome C Negative cells),[2],40.58%
same,level of ATR kinase,[3],significant increase
same,increase in the content of STAT5,[4],3 fold
same,level of γH2AX (accumulation),[5],low levels
same,content of phosphorylated checkpoint kinase Chk1,[6],significantly decreases
same,Mito-Damage (%),[7],97.89%
same,IC50,"[8]; Homo sapiens, HL-60, HL60 cells",3 ± 1 nM
"CC(=O)[O-].C[n+]1ccn(CCCCCCOC(=O)[C@]23CCC(C)(C)CC2C2=CCC4[C@@]5(C)CC[C@H](O)C(C)(C)C5CC[C@@]4(C)[C@]2(C)CC3)c1 (stereo partly drawn) [13d, 1-(6-{[(3β)-3-Hydroxyolean-12-en-28-oyl]oxy}hexyl)-3-methylimidazolium Acetate]",content of phosphorylated checkpoint kinase Chk2,[1],significantly decreases
same,cytochrome c release from mitochondria (cytochrome C Negative cells),[2],19.43%
same,level of ATR kinase,[3],significant increase
same,increase in the content of STAT5,[4],3 fold
same,level of γH2AX (accumulation),[5],low levels
same,content of phosphorylated checkpoint kinase Chk1,[6],significantly decreases
same,Mito-Damage (%),[7],97.47%
same,IC50,[8]; HL60 cells,2 ± 1 nM
